Biological target: T1, hFXR (Homo sapiens, UniProt Q96RI1)
T1 construct: expressed in transfected cells; host or cells: CV-1 cells
T1 sequence (Q96RI1 1-486): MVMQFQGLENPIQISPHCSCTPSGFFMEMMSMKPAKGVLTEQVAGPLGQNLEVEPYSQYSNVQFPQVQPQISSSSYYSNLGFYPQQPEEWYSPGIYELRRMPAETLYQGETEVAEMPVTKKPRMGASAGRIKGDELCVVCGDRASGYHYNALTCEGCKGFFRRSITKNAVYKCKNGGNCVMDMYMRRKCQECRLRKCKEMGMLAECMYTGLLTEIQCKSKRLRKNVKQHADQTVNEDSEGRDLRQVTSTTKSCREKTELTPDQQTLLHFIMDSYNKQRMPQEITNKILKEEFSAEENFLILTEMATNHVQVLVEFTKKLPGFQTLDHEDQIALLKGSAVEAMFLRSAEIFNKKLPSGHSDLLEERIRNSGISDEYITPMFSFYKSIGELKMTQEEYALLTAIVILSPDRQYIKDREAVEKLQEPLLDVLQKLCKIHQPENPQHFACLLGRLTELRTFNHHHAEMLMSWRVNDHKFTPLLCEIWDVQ
T1 sequence (P19793 1-462 partner): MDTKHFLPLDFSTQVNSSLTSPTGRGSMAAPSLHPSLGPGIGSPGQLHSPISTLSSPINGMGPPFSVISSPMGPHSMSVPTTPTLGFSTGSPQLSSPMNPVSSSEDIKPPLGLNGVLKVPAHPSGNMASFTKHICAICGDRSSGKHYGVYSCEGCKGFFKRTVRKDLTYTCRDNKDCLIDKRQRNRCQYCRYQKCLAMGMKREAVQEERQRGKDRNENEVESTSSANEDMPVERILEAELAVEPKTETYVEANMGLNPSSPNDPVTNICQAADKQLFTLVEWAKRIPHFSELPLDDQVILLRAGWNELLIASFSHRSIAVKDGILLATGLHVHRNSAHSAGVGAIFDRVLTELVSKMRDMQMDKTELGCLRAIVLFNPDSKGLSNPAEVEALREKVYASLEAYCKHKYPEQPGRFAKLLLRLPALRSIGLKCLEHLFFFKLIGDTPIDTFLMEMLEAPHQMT
Assay: In Vitro FXR Assay (TK)
Format: cell-based
Details: CV-1 cells transfected with hFXR, hRXR, TK-ECRE-luc and pCMX-YFP; compounds incubated 18 hrs; luminescence
How it was run: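 CV-1 cells transiently co-transfected with hFXR, hRXR, TK-ECRE-luc and pCMX-YFP plasmids in charcoal-stripped serum medium. Serially diluted compounds added, cells incubated 18 h at 37° C, then lysed and luminescence read.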

SMILES | EC50
COc1ccc([C@H]2CC[C@H](CN(C(=O)CC(C)(C)C)c3nccc4cc(CO)ccc34)CC2)cc1C [Compound 2, N-(6-(Hydroxymethyl)isoquinolin-1-yl)-N-((trans-4-(4-methoxy-3-methylphenyl)cyclohexyl)methyl)-3,3-dimethylbutanamide] | ≤ 1000 nM
COc1ccc2c(N(Cc3ccc(-c4ccc(OC)c(C)c4)cc3)C(=O)CC(C)(C)C)nccc2c1 [Compound 4.02, N-((4′-Methoxy-3′-methyl-[1,1′-biphenyl]-4-yl)methyl)-N-(6-methoxyisoquinolin-1-yl)-3,3-dimethylbutanamide] | ≤ 1000 nM
COc1ccc(-c2ccc(CN(C(=O)CC(C)(C)C)c3ncnc4ccccc34)cc2)cc1C [Compound 4.01, N-((4′-Methoxy-3′-methyl-[1,1′-biphenyl]-4-yl)methyl)-3,3-dimethyl-N-(quinazolin-4-yl)butanamide] | 1000 to 10000 nM
COc1ccc(-c2ccc(CN(C(=O)CC(C)(C)C)c3cncc4ccccc34)cc2)cc1C [Compound 5, N-(Isoquinolin-4-yl)-N-((4′-methoxy-3′-methyl-[1,1′-biphenyl]-4-yl)methyl)-3,3-dimethylbutanamide] | 1000 to 10000 nM

Second part, the compound after the results:

EC50 | SMILES
> 10000 nM | COc1ccc(-c2ccc(CN(C(=O)CC(C)(C)C)c3nccc4cc(OC5CCN(C)CC5)ccc34)cc2)cc1C [Compound 8.06, N-((4′-Methoxy-3′-methyl-[1,1′-biphenyl]-4-yl)methyl)-3,3-dimethyl-N-(6-((1-methylpiperidin-4-yl)oxy)isoquinolin-1-yl)butanamide]
1000 to 10000 nM | COc1ccc(-c2ccc(CN(C(=O)CC(C)(C)C)c3nccc4cc(OCCCN(C)C)ccc34)cc2)cc1C [Compound 8.12, N-(6-(3-(Dimethylamino)propoxy)iso-quinolin-1-yl)-N-((4′-methoxy-3′-methyl-[1,1′-biphenyl]-4-yl)methyl)-3,3-dimethylbutanamide]
≤ 1000 nM | COc1ccc(-c2ccc(CN(C(=O)CC(C)(C)C)c3nccc4cc(N5CCC(O)CC5)ccc34)cc2)cc1C [Compound 6.18, N-(6-(4-Hydroxypiperidin-1-yl)isoquinolin-1-yl)-N-((4′-methoxy-3′-methyl-[1,1′-biphenyl]-4-yl)methyl)-3,3-dimethylbutanamide]
1000 to 10000 nM | COc1ccc(-c2ccc(CN(C(=O)CC(C)(C)C)c3nccc4cc(COCC(=O)N(C)C)ccc34)cc2)cc1C [Compound 19.02, N-(6-((2-(Dimethylamino)-2-oxoethoxy)methyl)isoquinolin-1-yl)-N-((4′-methoxy-3′-methyl-[1,1′-biphenyl]-4-yl)methyl)-3,3-dimethylbutanamide]
≤ 1000 nM | COCCOCc1ccc2c(N(Cc3ccc(-c4ccc(OC)c(C)c4)cc3)C(=O)CC(C)(C)C)nccc2c1 [Compound 9.04, N-((4′-Methoxy-3′-methyl-[1,1′-biphenyl]-4-yl)methyl)-N-(6-((2-methoxyethoxy)methyl)isoquinolin-1-yl)-3,3-dimethylbutanamide]
≤ 1000 nM | COc1ccc(-c2ccc(CN(C(=O)CC(C)(C)C)c3nccc4cc(N5CCC5)ccc34)cc2)cc1C [Compound 6.04, N-(6-(Azetidin-1-yl)isoquinolin-1-yl)-N-((4′-methoxy-3′-methyl-[1,1′-biphenyl]-4-yl)methyl)-3,3-dimethylbutanamide]
≤ 1000 nM | COc1ccc(-c2ccc(CN(C(=O)CC(C)(C)C)c3nccc4cc(OCCO)ccc34)cc2)cc1C [Compound 8.11, N-(6-(2-Hydroxyethoxy)isoquinolin-1-yl)-N-((4′-methoxy-3′-methyl-[1,1′-biphenyl]-4-yl)methyl)-3,3-dimethylbutanamide]
≤ 1000 nM | COc1ccc(-c2ccc(CN(C(=O)CC(C)(C)C)c3nccc4cc(N5CCC(CO)C5)ccc34)cc2)cc1C (stereo not drawn) [Compound 6.16, N-(6-(3-(Hydroxymethyl)pyrrolidin-1-yl)isoquinolin-1-yl)-N-((4′-methoxy-3′-methyl-[1,1′-biphenyl]-4-yl)methyl)-3,3-dimethylbutanamide]

Reference: patent US20200131132A1, “FARNESOID X RECEPTOR AGONISTS AND USES THEREOF” (Metacrine, Inc., priority 2017, published 2020)
